Experimental data taken from PMC12715762, “Discovery of VU6052254: A Novel, Potent M1 Positive Allosteric Modulator” (ACS Chemical Neuroscience, 2025).

Key:
[1] = multispecies hepatocyte stability, summary across species; assay type: in vitro ADME, rat, dog, monkey, human
Source text: (§1) However, the hepatocyte stability of 7 was far better than 1 for rat, dog, and human and was therefore poised for further advancement of compound characterization.

[2] = Human Phase I; cited from earlier work
[3] = hepatocyte metabolite stability (monkey); assay type: in vitro ADME; settings: Monkey hepatocytes, 4 h incubation of the parent PAM
Source text: as §1

[4] = hepatocyte metabolite stability (human); assay type: in vitro ADME; settings: Human hepatocytes, 4 h incubation of the parent PAM
Source text: From this exercise, a single compound emerged, harboring a tertiary hydroxyl moiety at the 7-position of the indazole, VU6052254 (henceforth PAM 7).
as §1

Sprague-Dawley rats = test: CFC with scopolamine challenge; assay type: in vivo, rat
[5] = kinetic / aqueous solubility; assay type: physicochemical; settings: result in words
[6] = dog MTD study and high-dose rat 14-day toxicology study; result in words; cited from earlier work

Compound: Cn1cc2c(-c3cc(F)c(CN4C(=O)c5cccnc5C4O)c(F)c3)cccc2n1 (stereo not shown) [compound 2]
- level of oxidative metabolite generated (label = metabolite) ([1]; across all four species (rat, dog, monkey, human hepatocytes)): > 23%
- metabolite share of plasma AUC of total VU0467319 drug administered [2]: > 50%
- % Total Peak Area, oxidative metabolite (label = metabolite) [3]: 74.3%
- % Total Peak Area, oxidative metabolite (label = metabolite) [4]: 34.9%

Compound: CN1[C@@H]2C[C@@H](OC(=O)[C@H](CO)c3ccccc3)C[C@H]1[C@@H]1O[C@@H]12 [scopolamine]
- disruption of acquisition of CFC (Sprague-Dawley rats; 0.25 mg/kg IP, rat): ~65%
- effect of scopolamine alone on acquisition of CFC (Sprague-Dawley rats; 0.26 mg/kg as printed, result in words): robust decrease in the acquisition of CFC

Compound: [2H]C1(O)c2ncccc2C(=O)N1Cc1c(F)cc(-c2cccc3nn(C([2H])([2H])[2H])cc23)cc1F (stereo not shown) [compound 6]
- level of oxidative metabolite generated (label = metabolite) ([1]; across species except for monkey): < 10%
- % Total Peak Area, oxidative metabolite (label = metabolite) [3]: 21%

Compound: [2H]C1([2H])c2ncccc2C(=O)N1Cc1c(F)cc(-c2cccc3nn(C([2H])([2H])[2H])cc23)cc1F [compound 5]
- aqueous solubility [5]: low aqueous solubility
- amount of oxidative metabolism at high dose [6]: comparable to that of VU0467319 (1)
